According to article PMC11697409, “Design of Natterins-based peptides improves antimicrobial and antiviral activities” (Biotechnology Reports, 2024):
Where two headings read alike, the source gives them in different places. Residues, ends and D or L forms follow the SMILES beside them. No end group written: not given here.

How the values were obtained:
[1] = system: trypsin; assay: Peptide stability to trypsin, HPLC-MS; assay type: in vitro ADME; details: trypsin 20 μg/mL, peptide 100 μg/mL, incubation time not given; for Change after trypsin treatment, mass spectra: ESI-MS; for Change after trypsin treatment, HPLC chromatogram: HPLC C-18, UV 220 nm
Protocol: Peptide stability was evaluated under various conditions. To investigate the impact of temperature on peptide structure, samples were incubated at 37 °C and 60 °C for 24 h. A control sample was kept at -4 °C. To evaluate the distribution under acidic conditions, the peptides were dissolved in a 0.074 M HCl solution, resulting in a pH of 3. For evaluation under basic conditions, the peptides were dissolved in a 0.18 M NaOH solution, resulting in a pH of 11. A control sample was maintained at pH 7. Additionally, samples were exposed to trypsin solutions at a concentration of 20 µg/mL. All samples underwent analysis using High-Performance Liquid Chromatography (HPLC) coupled with Mass Spectrometry (LC/MS-2020 EV - Prominence; Shimadzu Corporation, Tokyo, Japan). The HPLC system comprised LC-10AD mobile phase pumps, an Ultrasphere C-18 column (5 µm; 4.6 × 250 mm), a UV-vis SPD-10AV detector set at a wavelength of 220 nm, and a mass spectrometer operating in electrospray ionization (ESI) mode with a quadrupole separator.
In mass spectrometry assays, an alkaline pH can lead to diverse outcomes. Specifically, in the analysis of proteins and peptides, an alkaline environment may induce unintended chemical modifications in certain samples, impacting ionization, fragmentation, and the detection of reference molecules. Additionally, the peptides underwent treatment with a trypsin solution at a concentration of 20 μg/mL.

[2] = system: human RBC; assay: Hemolytic test; assay type: cell-based; details: 50 μM, 1 h at 37 °C, A570, 1 % TritonX-100 as positive control; highest percentage observed
Protocol: To perform the hemolytic test, human RBC was obtained from a volunteer donor. After centrifugation at 1000 xg for 5 min, the RBC pellets were resuspended in 5 % (vol/vol) sterile saline at different concentrations of peptides NATT2_06 and NATT4_01, and subsequently incubated at 37 °C for 1 hour. The supernatants were transferred to a 96-well plate, and the absorbance at 570 nm (A570) was measured. 0.12 % DMSO and 1 % TritonX-100 were used as negative and positive control, respectively. The hemolysis rate was calculated as Eq 1: Hemolysis%=A(sample)−A(DMSO)/A(Triton)−A(DMSO)x100

[3] = system: G. mellonella larvae; assay: Toxicity in Galleria mellonella; assay type: in vivo; details: 10 µL of 50 µM injected into the last left proleg, ten larvae per group, 7 days, three independent experiments
Protocol: For this study, the methodologies described by Mylonakis et al. and Jorjão et al., with some modifications were employed. G. mellonella larvae in their final larval stage were used for the experiment. Ten randomly selected G. mellonella larvae of similar weight and size (250 to 350 mg) were used per group in all assays. Syringes (Hamilton Inc., USA) used for injections were sterilized with peracetic acid (Henkel - Ecolab GmbH, Düsseldorf, Germany) according to the manufacturer's instructions prior to inoculation. Each larva was injected with 10 µL of each peptide (NATT2_06 and NATT4_01) at a concentration of 50 µM into the last left proleg. A control group was injected with PBS to assess overall viability. The number of deceased G. mellonella was recorded every 24 h after peptide injection, with monitoring continuing for 7 days across three independent experiments. […] The experiment concluded either when all larvae in the experimental group had died or transitioned into the pupal form.

[4] = system: Chikungunya virus (CHIKV, ECSA genotype) in Huh-7 cells; assay type: cell-based; details: vs untreated CHIKV control
Protocol: . First, the viral propagation and titration were performed in the adherent African green monkey kidney epithelial (Vero) cells (ATCC CRL-1586). The virus was grown in Vero cultured in MEM medium (Gibco, Waltham, MA, USA) supplemented with 10 % fetal bovine serum (FBS, Gibco), 100 U/mL penicillin, and 100 μg/mL streptomycin (Gibco, Waltham, MA, USA)-M10) for 48 h Then, the supernatant was collected, harvested, and titrated as previously described. The titer obtained for CHIKV was 9.3 × 10^6 PFU/ml.
The immortalized human hepatocytes derived from the hepatocarcinoma of an individual (Huh-7 lineage, CLS 300156) were cultured. The Huh-7 were grown in Minimum Essential Medium (Advanced MEM, Gibco®, USA), supplemented with 10 % (v/v) heat-inactivated fetal bovine serum (FBS) (Gibco®, USA), 100 U/mL penicillin, and 100 μg/mL streptomycin (PenStrep – Gibco®, USA), along with 2 mM L-glutamine (Gibco®, USA), and maintained in a humidified atmosphere with 5 % CO2 at 37 °C. […]
The second assay, named "co-treatment" (Figure S1b), involved removing the culture medium from the wells, washing with PBS, followed by simultaneous inoculation of CHIKV and peptides, diluted in the same manner in culture medium with the same supplementation, in triplicate. […] Cells were also monitored for 12 h. […]
After conducting the assays, each viral RNA in the samples' supernatant was extracted using the QIAamp® Viral RNA Mini Kit (QIAGEN®, Germany). […] For the molecular characterization of NATT peptide treatment, RNA samples extracted from the plaque challenge assays' supernatants and viral stock dilutions underwent quantitative reverse transcription PCR (RT-qPCR) assays. […]
For the RT-qPCR reaction, the AgPath-ID® One Step RT-qPCR kit (Applied Biosystems®, USA) was used for each extracted RNA in duplicate. […] All detection and quantification of viral RNA was done by real-time PCR of each sample (Table S1 and Figure S14). […]

[5] = system: trypsin; details: cited from earlier work
Protocol: In the case of the peptide Cap11, this loss of activity occurs after 15 min of incubation. Conversely, a brief exposure of up to 5 min to trypsin enhances the antimicrobial activity of peptides such as Cap11–1-18m² by a factor of 2 [76]. […] The sp ...

[6] = various assays; cited from earlier work
From the text: Similarly, peptides including HKPLP, Cap18, Cap11, Cap11–1-18m², Cecropin B, Cecropin P1, Melittin, Indolic ...

Molecule	time of incubation with trypsin until antimicrobial activity is entirely lost [5] [s]	temperature withstood [6]	further results
CC(C)C[C@H](NC(=O)[C@H](CCCCN)NC(=O)[C@@H]1CCCN1C(=O)[C@H](CCCNC(=N)N)NC(=O)[C@H](CC(C)C)NC(=O)[C@@H](NC(=O)[C@@H](N)[C@@H](C)O)[C@@H](C)O)C(=O)N[C@@H](CCCCN)C(=O)N[C@@H](CO)C(=O)N[C@@H](CCCCN)C(N)=O [NATT2_06] (H-TTLRPKLKSK-NH2)	–	–	Change after trypsin treatment, mass spectra [1]: displayed notable changes in mass; Change after trypsin treatment, HPLC chromatogram [1]: displayed notable changes in mass; hemolysis [2]: 2%; Deaths of G. mellonella larvae [3]: only three deaths occurred
CC(C)C[C@H](NC(=O)[C@H](CCCCN)NC(=O)CNC(=O)[C@H](CC(C)C)NC(=O)CNC(=O)[C@H](Cc1ccc(O)cc1)NC(=O)[C@H](CCCCN)NC(=O)[C@H](CC(N)=O)NC(=O)[C@H](CCCCN)NC(=O)[C@H](C)NC(=O)[C@@H](NC(=O)[C@H](Cc1ccc(O)cc1)NC(=O)[C@@H](N)CC(C)C)C(C)C)C(N)=O [NATT4_01] (H-LYVAKNKYGLGKL-NH2)	–	–	Change after trypsin treatment, mass spectra [1]: fragments of the peptide were discernible; Change after trypsin treatment, HPLC chromatogram [1]: no notable shifts observed in the chromatograms; Percentage of viral inhibition, co-treatment ([4]; 25 μM): 25,31%; Percentage of viral inhibition, co-treatment ([4]; 50 μM): 22,62%; Percentage of viral inhibition, co-treatment ([4]; 3125 μM (so in the source)): 22,44%; Deaths of G. mellonella larvae [3]: no deaths were observed
Cap18	≤ 30	up to 100 °C	–
Cecropin B	≤ 30	up to 100 °C	–
Cecropin P1 (SWLSKTAKKLENSAKKRISEGIAIAIQGGPR; Cecropin-P1; UniProt P14661 14-44, looked up)	≤ 30	up to 100 °C	–
Indolicidin (ILPWKWPWWPWRR; ends and bridges not checked; UniProt P33046 131-143, looked up)	≤ 30	up to 100 °C	–
Melittin	≤ 30	up to 100 °C	–
